The source of these data is PMC6286779, “HLA-A2-Restricted Epitopes Identified from MTA1 Could Elicit Antigen-Specific Cytotoxic T Lymphocyte Response” (Journal of Immunology Research, 2018).

No end group written: not given here.

The test system of test [1] is SW620 incubated with an anti-human HLA-A2 antibody. The experiment in a line: LDH cytotoxicity assay, CTLs induced in vitro, HLA-A2 blocked. In kind it is cell-based. Particulars: peptide-induced CTLs, BB7.2 added 30 min before effectors. The procedure:
(§1) CTL induction in vitro was conducted according to the procedures previously described. Briefly, PBMCs from eight HLA-A^∗02^+ healthy donors were isolated using Ficoll-Paque density gradient centrifugation and resuspended in RPMI 1640 medium supplemented with 10% FBS. Then, PBMCs were stimulated three times (once a week) with the indicated peptides (10 μg/ml) or protein MTA1(1–283) (at final concentrations of 0, 1, 10, 30, and 50 μg/ml) for 21 days. Human recombinant cytokine interleukin-2 (IL-2) (50 U/ml) was added on day 3 and 1 day after each stimulation. The cytotoxic assay (lactate dehydrogenase (LDH) assay) and IFN-γ secretion enzyme-linked immunospot (ELISPOT) assay were performed on day 21.
(§2) Cytotoxic activity of induced T cells was tested based on the quantitation of LDH release using the nonradioactive cytotoxicity assay kit (Promega, USA) at the gradient E/T ratio [29, 31]. Target cells which expressed different levels of MTA1 or peptide-pulsed T2 cells were used as target cells. The anti-human HLA-A2 antibody (BB7.2) was added 30 min before adding effector cells to determine the HLA restriction. Target cells (5 × 10^3/well) were cocultured with the effector cells at 37°C for 4 h. The percentage of specific lysis of the target cells was determined using the equation: percentage of specific lysis = [(experimental release − effector spontaneous release − target spontaneous release)/(target maximum release − target spontaneous release)] × 100.

Test [2] relates to PBMCs from HLA-A*02+ healthy donors. In words: IFN-γ ELISPOT of CTLs induced in vitro. In kind it is cell-based, human. The note with it: PBMCs of six donors stimulated with peptide 10 μg/ml three times, day 21; stimulators peptide-pulsed T2 cells (50 μg/ml); 1 × 10^5 effectors; mean, n = 6. The protocol:
as §1
The ELISPOT assay was performed using a commercial kit (Dakewe, China) according to the procedures previously described. Briefly, T2 cells incubated with/without candidate peptide (50 μg/ml) were used as the stimulating cells, effector cells (1 × 10^5) and stimulator cells (peptide-pulsed T2 cells or T2 cells only, 1 × 10^5) were seeded into the 96-well plate precoated with an anti-human (or anti-mouse) IFN-γ antibody. After incubation at 37°C for 18 h, cells were removed, and plates were processed for analysis as instructed. The spot number was determined automatically using a computer-assisted spot analyzer (Dakewe, China).

The subject of a further test is SW620 (HLA-A2+, MTA1+). The experiment in a line: LDH cytotoxicity assay, CTLs induced in vitro. It counts as cell-based, human. The note with it: CTLs induced by peptide 10 μg/ml from donor no. 6; E/T 50 : 1; LDH release, 4 h; n = 3. The protocol: as §1, §2
Test [3] relates to MDA-MB-231 (HLA-A2+, MTA1+). The experiment in a line: LDH cytotoxicity assay, CTLs induced in vitro. It counts as cell-based, human. The note with it: CTLs induced by peptide 10 μg/ml from donor no. 6; E/T 50 : 1; LDH release, 4 h; n = 3. The procedure:
as §1, §2

The test system of a further test is HT-29 (HLA-A2−, MTA1+). The experiment in a line: LDH cytotoxicity assay, CTLs induced in vitro. In kind it is cell-based, human. The note with it: peptide-induced CTLs, HLA-A2-negative control target. The procedure: as §1, §2
For the next test, the system named is MCF-7 (HLA-A2+, MTA1+). The experiment in a line: LDH cytotoxicity assay, CTLs induced in vitro. The note with it: peptide-induced CTLs from healthy donors, E/T 50 : 1. In kind it is cell-based, human. The procedure: as §1, §2
Test [4] concerns the target T1, peptide/HLA-A*0201 complexes (Homo sapiens, UniProt P04439, D140Y/D185E/D98H/E176V/E277Q/G131W/G231S/I119V/I121R/I166T/I218V/L300P/L318F/N151K/N90K/P208A/P217A/Q86G/Q94H/R138H/R169H/T345S).
T1 construct: endogenous in cells; host or cells: T2 lymphoblastic cell line (TAP-deficient)
In words: T2 stabilization (stability) assay. In kind it is binding. Particulars: T2 cells, peptide 50 μg/ml, 18 h, then brefeldin A 10 μg/ml 1 h; read at 0, 2, 4, 6 h, 37°C; flow cytometry. The protocol:
For the stability assay, each of the selected peptides (50 μg/ml) was incubated with T2 cells (1 × 10^6 cells/ml) for 18 h in serum-free RPMI 1640 medium supplemented with 3 μg/ml β2-M at 37°C. Thereafter, cells were washed twice and incubated with brefeldin A (10 μg/ml, eBiosciences, USA) for 1 h. Subsequently, the cells were washed and incubated for 0, 2, 4, and 6 h at 37°C. Cells were washed twice, stained with BB7.2 for 0.5 h at 4°C. Finally, cells were collected, washed, and analyzed by flow cytometry. Dissociation complex 50 (DC50) was defined as time (t) required for the loss of 50% of the HLA-A^∗0201/peptide complexes stabilized at 0 h.

A further test addresses HLA-A*0201 molecules (Homo sapiens, UniProt P04439, D140Y/D185E/D98H/E176V/E277Q/G131W/G231S/I119V/I121R/I166T/I218V/L300P/L318F/N151K/N90K/P208A/P217A/Q86G/Q94H/R138H/R169H/T345S). The experiment in a line: T2 binding assay. Particulars: T2 cells 1 × 10^6 cells/ml, peptide 50 μg/ml, 3 μg/ml β2-M, serum-free RPMI 1640, 18 h, 37°C; BB7.2 staining, flow cytometry; FI > 1.5 = high affinity. The protocol: The binding affinity of these peptides to HLA-A^∗0201 was evaluated according to our previous study. Briefly, T2 cells (1 × 10^6 cells/ml) were incubated with each peptide (50 μg/ml) and 3 μg/ml human β2-microglobulin (β2-M, Merck, Germany) in serum-free RPMI 1640 medium for 18 h at 37°C in a humidified atmosphere of 5% CO2. Then cells were washed twice and incubated with the anti-human HLA-A2 PE-Cyanine7 mAb, BB7.2 (eBioscience, USA) for 0.5 h at 4°C. Finally, cells were collected, washed, and analyzed using flow cytometry (FACSCalibur, Becton Dickinson, USA). The fluorescence index (FI) calculation was performed as follows: FI = [(mean fluorescence intensity (MFI) of the given peptide − background) − (MFI of the PBS control group − background)]/[(MFI of the PBS control group − background)]. The MFI value of cells untreated with peptides and antibodies was employed as background. Peptides with an FI factor of more than 1.5 were classed as high-affinity candidates.

Test [5] has as its system Het-1A (HLA-A2+, MTA1low). In words: LDH cytotoxicity assay, CTLs induced in vitro. In kind it is cell-based, human. The note with it: peptide-induced CD8+ T cells, E/T 50 : 1. The protocol: as §1, §2
Test [6] has as its target HLA-A*0201 molecule on T2 cells (human (endogenous in T2) | human). In words: flow cytometry on cells; stability assay: T2 cells loaded with peptide (50 μg/ml) and 3 μg/ml β2-M for 18 h at 37°C, brefeldin A (10 μg/ml) 1 h, then 0, 2, 4 and 6 h at 37°C; stained with BB7.2; DC50 = time for the loss of 50% of the HLA-A*0201/peptide complexes stabilized at 0 h.
Test [7] has the same target. In words: flow cytometry on cells; T2 binding assay: T2 cells (1 x 10^6 cells/ml) with peptide (50 μg/ml) and 3 μg/ml human β2-M in serum-free RPMI 1640, 18 h, 37°C; surface HLA-A2 stained with BB7.2 PE-Cyanine7; fluorescence index (FI); FI > 1.5 classed as high affinity.

Take ALADKHATL [Peptide P57]: the “lysis of SW620 cells incubated with an HLA-A2 blocking antibody” value in test [1] is recorded as “did not lyse”. Further, the “IFN-γ ELISPOT mean spot intensities” value in [2] turned out to be 543. Also, in the test with SW620 (HLA-A2+, MTA1+), the “lysis rate of SW620 cells” value turned out to be 45.8%. The “lysis rate of MDA-MB-231 cells” value in [3] stood at 30.5%. Besides, in the test with HT-29 (HLA-A2−, MTA1+), the “lysis of HT-29 cells” value is reported as “did not lyse”. The “rate of MCF-7 cell lysis” value with MCF-7 (HLA-A2+, MTA1+) is given as 17.6%. In addition, the “DC50: time required for the loss of 50% of the HLA-A*0201/peptide complexes stabilized at 0 h” value in test [4] is over 6 h. The “FI (fluorescence index)” value at HLA-A*0201 molecules is 1.56.
In the case of FLSRQLESL [Peptide P109], in test [1], the “lysis of SW620 cells incubated with an HLA-A2 blocking antibody” value is “did not lyse”. The “IFN-γ ELISPOT mean spot intensities” value in test [2] is given as 453. Also, the “rate of Het-1A cell lysis” value in test [5] came out at 11.9%. The “lysis rate of SW620 cells” value with SW620 (HLA-A2+, MTA1+) came to 65.5%. Further, the “lysis rate of MDA-MB-231 cells” value in test [3] was found to be 32.2%. The “lysis of HT-29 cells” value with HT-29 (HLA-A2−, MTA1+) is recorded as “did not lyse”. The “rate of MCF-7 cell lysis” value in the test on MCF-7 (HLA-A2+, MTA1+) was found to be 23.8%. Further, the “DC50: time required for the loss of 50% of the HLA-A*0201/peptide complexes stabilized at 0 h” value in test [4] is over 6 h. At HLA-A*0201 molecules, the “FI (fluorescence index)” value came out at 2.61.
The molecule HBcAg 18-27 peptide displayed a DC50 in [6] of over 6 h.
Regarding “ILIGETIKI [COX-2_321-329, reference compound]”, in test [4], the “DC50: time required for the loss of 50% of the HLA-A*0201/peptide complexes stabilized at 0 h” value was over 6 h. Moreover, in the test with HLA-A*0201 molecules, the “FI (fluorescence index)” value turned out to be 1.905.
Take YQADITDLL [Peptide P173]: the “FI (fluorescence index)” value at HLA-A*0201 molecules was 0.22.
In the case of FLSRQLESL [MTA1 peptide P109], the FI (fluorescence index) in [7] came to 2.61. Further, the DC50 in test [6] was over 6 h.
With YLIRRIEEL [MTA1 peptide P22], the FI (fluorescence index) in [7] amounted to 2.08. The molecule also showed a DC50 in test [6] of over 2 h.
As for ILIGETIKI (not fully specified) [cyclooxygenase-2 (COX-2) 321-329 peptide], the FI (fluorescence index) in test [7] was 1.91. Further, the DC50 in test [6] is over 6 h.
Taken in the same sequence, the figures for TLLNETESL [MTA1 peptide P129] were 1.28 and over 6 h.
In the same order, the values of ALADKHATL [MTA1 peptide P57] are 1.56 and over 6 h.
In turn, YQADITDLL [MTA1 peptide P173] gave an FI (fluorescence index) in [7] of 0.22.
